# Columns and labels:
# ischemia/reperfusion = details: 5 mg/kg at 2 hr post ischemia/reperfusion, daily for 3 days or 2 weeks; cited from earlier work
# [1] = test system: tMCAo stroke in STZ-induced diabetic mice; experiment: Reperfused tMCAo stroke model in STZ-induced diabetic male mice, with or without RIC therapy; type: in vivo; details: for brain tissue oxygenation (PbtO2): 6 h post-reperfusion; for % infarct volume / % swelling / mean NDS: 24 h post-stroke
# Description: The tMCAo surgical procedure is similar to TE-stroke surgery, however, the transient occlusion is achieved using a suture instead of a clot as reported by Hoda et al (supra). Briefly, a 6-0 monofilament suture with ˜3-mm silicone-coated tip designed to induce tMCAo in mice (Doccol Corp, USA) was introduced into the ICA via an ECA stump, directed and gently advanced into the MCA region until the suture was wedged to occlude the proximal stem of MCA. The occlusion was maintained prior to withdrawing the filament after […], the ECA- arteriotomy was ligated and the reperfusion was allowed following suture withdrawal. The sham-operated group underwent similar procedures without occlusion, and mice recovered as above.
# TTC is a white powder and the solution remains colorless, which is reduced to red 1,3,5-triphenylformazan (TPF) by the enzymatic action of various dehydrogenases primarily mitochondrial dehydrogenase from the living tissues, while the core remains as white. Therefore, larger white area indicates higher injury and infarction volume. After performing ATT, mice were overdosed and deeply anesthetized with high isofluorane (5%). Brains were very quickly perfused with cold 25 ml of 0.01 M phosphate-buffered saline (PBS), harvested fresh and immediately placed in a metallic mouse brain matrix. Looking at the infarcted area, 5 blades were placed in alternate gaps to cut and obtain […] coronal slices. Sections were individually placed in a 35-mm dish containing pre-warmed (37° C.) 3-ml of 5% TTC in PBS (Sigma) for 20-25 minutes at 37° C., followed by 2× washing with cold PBS and fixation with 10% formalin. In order to image, fixed sections were taken out of the dish and placed in order on a high-resolution Cannon Scanner. After scanning, images were cropped and saved for analysis. Corrected infarct volume was estimated using gray scale image and Scion Image software and presented as the Corrected % infarct volume normalized to the uninjured side.
# Diabetes was induced in adult male mice (14±1 weeks of age) as confirmed after 7 days of STZ-injection, followed by tMCAo stroke surgery at 3 weeks post-STZ injection. Stroke was induced with 60-min suture occlusion followed by reperfusion with suture withdrawal. GRI therapy or vehicle was IV-infused 10-min prior to reperfusion and RIC therapy/ RIC-mock was performed 1 h after reperfusion. […] PbtO2 was measured at 6h post-reperfusion (N=6/gp) using a 50-um thick oxygen sensor integrated to an UniAmp multi-channel system (Unisense, Denmark). Measurement signal was averaged for 3 min during a period of stable output as shown in the representative real-time electrogram traces in FIGS. 9A-9D. FIG. 9A is representative of a mouse treated with vehicle and receiving mock RIC. FIG. 9B is representative of a mouse receiving vehicle and RIC therapy. FIG. 9C is representative of a mouse receiving GRI therapy and mock RIC. FIG. 9D is representative of a mouse receiving GRI therapy and RIC therapy.
# Diabetic adult male mice (as described in Example 4) were subjected to tMCAo (N=10/gp) with or without GRI and/or RIC-therapies and outcome measures were performed at 24h post-stroke.
# [2] = low-dose GRI combined with RIC therapy, vs all other 3 groups
smiles,measurement,setting,value
"Cc1cc(C(N)=O)ccc1-n1c(CCC(=O)O)ccc1-c1ccc(-n2ccnc2)cc1 [GRI therapy, N6022]","Neurological score, survival rate and motor/cognitive skills",ischemia/reperfusion,improved
same,brain tissue oxygenation (PbtO2),[1]; GRI IV 10 min prior to reperfusion followed by RIC therapy 1 h after reperfusion,"showed enhanced efficacy of both, GRI and RIC-therapies, in improving benefits of reperfusion to increase PbtO2"
same,brain tissue oxygenation (PbtO2),"[1]; GRI alone (RIC-mock), IV 10 min prior to reperfusion, vs vehicle RIC-mock",improved PbtO2 significantly
same,% infarct volume,"[1]; GRI singly (RIC-mock), N=10/gp",did not improve
same,% swelling,"[1]; GRI singly (RIC-mock), N=10/gp",did not improve
same,mean NDS,"[1]; GRI singly (RIC-mock), N=10/gp",did not improve
same,% infarct volume,[1]; [2],significantly improved
same,% swelling,[1]; [2],significantly improved
same,mean NDS,[1]; [2],significantly improved
